SMILES strings stand for the structures. pIC50: −log10 of the molar value.

This passage reports IC50 results from patent US12173007B2, “Imidazopyridazine IL-17 inhibitor compounds” (Janssen Pharmaceutica NV, priority 2021, dated 2024).

Experiment [1] has as its target IL-17A(FLAG-Tagged): IL-17RA(His-Tagged) binding (Homo sapiens, UniProt Q16552, K93Q). The experiment in a line: IL-17A(FLAG-tagged):IL-17RA(His-tagged) binding disruption Eu-HTRF assay, Protocol 1. The settings on record: FLAG-IL-17A 2.5 nM; average if tested more than once. From the text:
IL-17A(FLAG-Tagged): IL-17RA(His-Tagged) Binding Disruption Eu-HTRF Assay
An antibody directed against the FLAG tag of IL-17A (SEQ ID NO: 1) is labeled with the HTRF donor chromophore (Europium-cryptate). IL-17A is present as a dimer that is “locked into” this quaternary structure due to the formation of loop-spanning […] disulfide bridges. The construct of IL-17RA used in the assay excludes the […] portion of the receptor and is fused to a C-terminal 10×His tag (SEQ ID NO:2). An antibody directed against the His tag of the IL-17RA chimera is labeled with the HTRF acceptor chromophore (“D2”). The fluorescence-resonance energy transfer (FRET) depends on the vicinity of the donor chromophore to the acceptor, and interruption of the binding between the IL-17A and IL-17RA causes the reduction/loss of FRET. Therefore, this assay allows to evaluate the compound effect on the binding IL-17A and IL-17RA by monitoring the fluorescence intensity of donor vs acceptor. The assay was run using either Protocol 1 or Protocol 2 as described below.
Protocol 1. 40 nl of 2-fold serial diluted compound solution for total 22 dilution points is added into each well of a 1536-well, white, low-volume, non-binding plate (Greiner #782904), then 2 μl of FLAG tagged IL-17A at 2×final concentration (2.5 nM) in solution of PBS+0.01% Triton-X100 is added to each well. The assay plate is briefly centrifuged then incubated for 1 h at rt. A mixed solution is prepared containing 2×5 nM 10HIS×IL-17RA, 2×2.5 nM Eu-anti-FLAG (CISBIO), 2×5 nM D2-anti-HIS (CISBIO) in PBS+0.01% Triton-X100+200 mM Potassium Fluoride (Sigma 60238) and 2 μl of mix is added to each well of the assay plate. The plate is briefly centrifuged then incubated for 2 h at rt. The HTRF intensities at the wavelength of donor (620 nm) and acceptor (665 nm) are measured using BMG Pherastar. The ratio between intensities at two wavelengths is calculated and plotted against the compound concentration and the data is fitted to a one-site competition model to yield IC50 of the compound.
For orientation: In TR-FRET formats the signal depends on donor and acceptor labels being close together.

Experiment [2] deals with IL-17A-induced G-CSF production in human normal keratinocyte (NHK). The experiment in a line: NHK assay: IL-17A-induced G-CSF production in normal human keratinocytes. Format: cell-based. The settings on record: 24 h, IL-17A 5 ng/mL, G-CSF by HTRF, average if tested more than once. In outline: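 Compound titrations are first mixed with recombinant human IL-17A for 1 h at room temperature. The mixture goes onto adult normal human keratinocytes (final IL-17A 5 ng/mL, 5% FBS, 0.2% DMSO) for 24 h at 37 °C. Secreted G-CSF is then measured by HTRF and IC50 fitted.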

Sequence of UniProt Q16552 (Q16552 with tags, fused parts or gaps K93Q): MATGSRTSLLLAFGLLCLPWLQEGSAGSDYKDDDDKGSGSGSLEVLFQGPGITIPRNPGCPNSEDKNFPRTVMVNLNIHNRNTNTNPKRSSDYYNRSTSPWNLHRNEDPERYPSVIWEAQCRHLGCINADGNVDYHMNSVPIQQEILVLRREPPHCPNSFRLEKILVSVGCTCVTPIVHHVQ

For orientation: pIC50 means the negative decadic logarithm of the IC50, by convention in mol/L. Low readings indicate a high IC50, high ones a low IC50. As for `CC(C)n1nccc1C(=O)N[C@H](c1cn2ncc(CN3CCCCNC3=O)cc2n1)C1CCC(F)(F)CC1` [Example 31, (S)—N-((4,4-Difluorocyclohexyl)(7-((2-oxo-1,3-diazepan-1-yl)methyl)imidazo[1,2-b]pyridazin-2-yl)methyl)-1-isopropyl-1H-pyrazole-5-carboxamide], the pIC50 in experiment [1] was < 7.00; in experiment [2] (Homo sapiens, Keratinocyte) it was < 7.00.

With `O=C(N[C@H](c1cn2ncc(CN3CCCNC3=O)cc2n1)C1CCC(F)(F)CC1)c1nonc1C1CC1` [Example 18, (S)-4-Cyclopropyl-N-((4,4-difluorocyclohexyl)(7-((2-oxotetrahydropyrimidin-1(2H)-yl)methyl)imidazo[1,2-b]pyridazin-2-yl)methyl)-1,2,5-oxadiazole-3-carboxamide], the pIC50 in experiment [1] is < 7.00; in experiment [2] (Homo sapiens, Keratinocyte), < 7.00.

Take `[2H]C([2H])([2H])C([2H])([2H])n1nccc1C(=O)N[C@H](c1cn2ncc([C@@H](COC)N3CC(F)(F)CNC3=O)cc2n1)C1CCC(F)(F)CC1` [Example 13, N—((S)-(7-((S)-1-(5,5-Difluoro-2-oxotetrahydropyrimidin-1(2H)-yl)-2-methoxyethyl)imidazo[1,2-b]pyridazin-2-yl)(4,4-difluorocyclohexyl)methyl)-1-(ethyl-d5)-1H-pyrazole-5-carboxamide]: the negative logarithm of the IC50 (pIC50) in experiment [1] was 7.00 to 7.30; in experiment [2] (Homo sapiens, Keratinocyte), > 7.30.

Take `COCC(c1cnn2cc([C@H](COC(C)(C)C(F)(F)F)NC(=O)c3nonc3C)nc2c1)N1CC(F)(F)CNC1=O` (single isomer, unassigned) [Example 15, N—((R)-1-(7-((S*)-1-(5,5-Difluoro-2-oxotetrahydropyrimidin-1(2H)-yl)-2-methoxyethyl)imidazo[1,2-b]pyridazin-2-yl)-2-((1,1,1-trifluoro-2-methylpropan-2-yl)oxy)ethyl)-4-methyl-1,2,5-oxadiazole-3-carboxamide]: the pIC50 in experiment [1] was > 7.30; in experiment [2] (Homo sapiens, Keratinocyte), > 7.30.

In the case of `CC(C)(OC[C@H](NC(=O)c1nonc1C1CC1)c1cn2ncc(CN3CC(F)(F)CNC3=O)cc2n1)C(F)(F)F` [Example 17, (R)-4-Cyclopropyl-N-(1-(7-((5,5-difluoro-2-oxotetrahydropyrimidin-1(2H)-yl)methyl)imidazo[1,2-b]pyridazin-2-yl)-2-((1,1,1-trifluoro-2-methylpropan-2-yl)oxy)ethyl)-1,2,5-oxadiazole-3-carboxamide], the pIC50 in experiment [1] is > 7.30; in experiment [2] (Homo sapiens, Keratinocyte), > 7.30.

`CC1CCCN(Cc2cnn3cc([C@@H](NC(=O)c4ccnn4C(C)C)C4CCC(F)(F)CC4)nc3c2)C(=O)N1` (single isomer, unassigned) [Example 95, N—((S)-(4,4-Difluorocyclohexyl)(7-(((S*)-4-methyl-2-oxo-1,3-diazepan-1-yl)methyl)imidazo[1,2-b]pyridazin-2-yl)methyl)-1-isopropyl-1H-pyrazole-5-carboxamide]: the pIC50 in experiment [1] and in experiment [2] was < 7.00 in each case.

Consider `CC(C)n1nccc1C(=O)N[C@H](c1cn2ncc(CN3CC(C)(C)CNC3=O)cc2n1)C1CCC(F)(F)CC1` [Example 34, (S)—N-((4,4-Difluorocyclohexyl)(7-((5,5-dimethyl-2-oxotetrahydropyrimidin-1(2H)-yl)methyl)imidazo[1,2-b]pyridazin-2-yl)methyl)-1-isopropyl-1H-pyrazole-5-carboxamide], for which the pIC50 in experiment [1] was < 7.00; in experiment [2] (Homo sapiens, Keratinocyte) it was < 7.00.

As to `Cc1nonc1C(=O)N[C@H](c1cn2ncc(C(C)N3CC(F)(F)CNC3=O)cc2n1)C1CCC(F)(F)CC1` (single isomer, unassigned) [Example 93, N—((S)-(7-((S*)-1-(5,5-Difluoro-2-oxotetrahydropyrimidin-1(2H)-yl)ethyl)imidazo[1,2-b]pyridazin-2-yl)(4,4-difluorocyclohexyl)methyl)-4-methyl-1,2,5-oxadiazole-3-carboxamide], the pIC50 in experiment [1] is < 7.00; in experiment [2] (Homo sapiens, Keratinocyte) it was < 7.00.
